{
  "source": "patent US20260103461A1",
  "about": "“ESTROGEN RECEPTOR MODULATORS AND USES THEREOF” (Olema Pharmaceuticals, Inc., priority 2022, published 2026)",
  "data": [
    {"molecular_target": "T1, estrogen receptor (Homo sapiens, UniProt P03372)", "T1 construct": "endogenous in cells; host or cells: ECC-1 cells", "T1 sequence (P03372 1-595)": "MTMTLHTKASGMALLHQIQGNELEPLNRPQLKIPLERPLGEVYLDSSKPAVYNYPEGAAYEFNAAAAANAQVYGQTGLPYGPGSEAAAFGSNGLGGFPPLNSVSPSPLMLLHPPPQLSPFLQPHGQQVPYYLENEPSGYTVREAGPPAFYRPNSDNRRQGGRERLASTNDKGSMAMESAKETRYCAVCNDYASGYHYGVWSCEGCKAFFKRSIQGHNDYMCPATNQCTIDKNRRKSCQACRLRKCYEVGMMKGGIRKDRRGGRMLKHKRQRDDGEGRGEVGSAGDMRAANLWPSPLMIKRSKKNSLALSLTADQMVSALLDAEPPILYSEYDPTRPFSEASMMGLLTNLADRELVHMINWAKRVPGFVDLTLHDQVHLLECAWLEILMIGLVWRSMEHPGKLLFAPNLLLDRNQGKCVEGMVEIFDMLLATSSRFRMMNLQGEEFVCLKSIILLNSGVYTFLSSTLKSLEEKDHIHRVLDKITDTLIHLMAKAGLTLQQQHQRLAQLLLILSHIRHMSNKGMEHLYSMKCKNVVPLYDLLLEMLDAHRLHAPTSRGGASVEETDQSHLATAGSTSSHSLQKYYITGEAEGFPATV", "assay": "AP (alkaline phosphatase) assay in ECC-1 cells, agonist mode and antagonist mode", "type": "cell-based", "details": "3 days, absence of E2 (agonist mode) or 500 pM E2 (antagonist mode), AP activity normalized to 500 pM E2 alone", "experimental": "ECC-1 cells were trypsinized and resuspended in hormone-depleted media and plated at a density of 15 k cells per well into a 96-well plate for at least 4 hours. Cells were treated with test compounds in the absence of E2 (for agonist mode) or in the presence of 500 pM E2 (for antagonist mode) for 3 days and plates were subsequently frozen at −80° C. Thawed plates were incubated with a chromogenic substrate of AP, p-nitrophenyl phosphate (Thermo Fisher Scientific), for 40 minutes at 42° C., and absorbances were read at 405 nm. AP activity was normalized to the activity of 500 pM E2 alone.\nThe compound numbers correspond to the compound numbers of Table 1 and 2. Compounds having an activity designated as “+” provided estrogen receptor agonism having (i) at least 80% increase in the E2-normalized signal in the AP assay (agonist mode) and (ii) no more than 80% reduction in the E2-normalized signal in the AP assay (antagonist mode). Compounds having an activity designated as “++” provided estrogen receptor antagonism having (i) between 10% and 80% increase in the E2-normalized signal in the AP assay (agonist mode) and (ii) between 10% and 80% reduction in the E2-normalized signal in the AP assay (antagonist mode).", "values": [
      {"smiles": "C[C@@H]1Cc2c([nH]c3ccccc23)[C@@H](c2cnc(O[C@H]3CN(CCCF)C[C@@H]3F)s2)N1CC(F)(F)CO", "note": "[Example I-32, 2,2-difluoro-3-[(1S,3R)-1-[2-[(3S,4S)-4-fluoro-1-(3-fluoropropyl)pyrrolidin-3-yl]oxythiazol-5-yl]-3-methyl-1,3,4,9-tetrahydropyrido[3,4-b]indol-2-yl]propan-1-ol]", "Activity (estrogen receptor modulation, agonism and antagonism)": "+ (estrogen receptor agonism having (i) at least 80% increase in the E2-normalized signal in the AP assay (agonist mode) and (ii) no more than 80% reduction in the E2-normalized signal in the AP assay (antagonist mode))"},
      {"smiles": "C[C@@H]1Cc2c([nH]c3ccccc23)[C@@H](c2cnc(O[C@H]3CN(CCCF)C[C@H]3F)s2)N1CC(F)(F)CO", "note": "[Example I-33, 2,2-difluoro-3-[(1S,3R)-1-[2-[(3S,4R)-4-fluoro-1-(3-fluoropropyl)pyrrolidin-3-yl]oxythiazol-5-yl]-3-methyl-1,3,4,9-tetrahydropyrido[3,4-b]indol-2-yl]propan-1-ol]", "Activity (estrogen receptor modulation, agonism and antagonism)": "+++ (estrogen receptor antagonism (i) with pIC50 greater than 7.5 and at least a 10% reduction in the E2-normalized signal in the AP assay (antagonist mode); and no more than 10% increase in E2-normalized signal in the AP assay (agonist mode))"},
      {"smiles": "C[C@@H]1Cc2c([nH]c3ccccc23)[C@@H](c2cnc(O[C@@H]3CCN(CCCF)[C@H]3C)s2)N1CC(F)(F)CO", "note": "[Example I-34, 2,2-difluoro-3-[(1S,3R)-1-[2-[(2S,3R)-1-(3-fluoropropyl)-2-methyl-pyrrolidin-3-yl]oxythiazol-5-yl]-3-methyl-1,3,4,9-tetrahydropyrido[3,4-b]indol-2-yl]propan-1-ol]", "Activity (estrogen receptor modulation, agonism and antagonism)": "+ (estrogen receptor agonism having (i) at least 80% increase in the E2-normalized signal in the AP assay (agonist mode) and (ii) no more than 80% reduction in the E2-normalized signal in the AP assay (antagonist mode))"},
      {"smiles": "C[C@@H]1[C@H](Oc2ncc([C@@H]3c4[nH]c5ccccc5c4C[C@@H](C)N3CC(F)(F)CO)s2)CCN1CCCF", "note": "[Example I-35, 2,2-difluoro-3-[(1S,3R)-1-[2-[(2R,3R)-1-(3-fluoropropyl)-2-methyl-pyrrolidin-3-yl]oxythiazol-5-yl]-3-methyl-1,3,4,9-tetrahydropyrido[3,4-b]indol-2-yl]propan-1-ol]", "Activity (estrogen receptor modulation, agonism and antagonism)": "+ (estrogen receptor agonism having (i) at least 80% increase in the E2-normalized signal in the AP assay (agonist mode) and (ii) no more than 80% reduction in the E2-normalized signal in the AP assay (antagonist mode))"},
      {"smiles": "C[C@@H]1Cc2c([nH]c3ccccc23)[C@@H](c2cnc(O[C@@H]3CON(CCCF)C3)s2)N1CC(F)(F)CO", "note": "[Example I-36, 2,2-difluoro-3-[(1S,3R)-1-[2-[(4S)-2-(3-fluoropropyl)isoxazolidin-4-yl]oxythiazol-5-yl]-3-methyl-1,3,4,9-tetrahydropyrido[3,4-b]indol-2-yl]propan-1-ol]", "Activity (estrogen receptor modulation, agonism and antagonism)": "+ (estrogen receptor agonism having (i) at least 80% increase in the E2-normalized signal in the AP assay (agonist mode) and (ii) no more than 80% reduction in the E2-normalized signal in the AP assay (antagonist mode))"},
      {"smiles": "C[C@@H]1Cc2c([nH]c3ccccc23)[C@@H](c2cnc(O[C@@H]3CCCN(CCCF)C3)s2)N1CC(F)(F)CO", "note": "[Example I-37, 2,2-difluoro-3-[(1S,3R)-1-[2-[[(3R)-1-(3-fluoropropyl)-3-piperidyl]oxy]thiazol-5-yl]-3-methyl-1,3,4,9-tetrahydropyrido[3,4-b]indol-2-yl]propan-1-ol]", "Activity (estrogen receptor modulation, agonism and antagonism)": "+++ (estrogen receptor antagonism (i) with pIC50 greater than 7.5 and at least a 10% reduction in the E2-normalized signal in the AP assay (antagonist mode); and no more than 10% increase in E2-normalized signal in the AP assay (agonist mode))"},
      {"smiles": "C[C@@H]1Cc2c([nH]c3ccccc23)[C@@H](c2cnc(O[C@H]3CCCN(CCCF)C3)s2)N1CC(F)(F)CO", "note": "[Example I-38]", "Activity (estrogen receptor modulation, agonism and antagonism)": "+ (estrogen receptor agonism having (i) at least 80% increase in the E2-normalized signal in the AP assay (agonist mode) and (ii) no more than 80% reduction in the E2-normalized signal in the AP assay (antagonist mode))"}
    ]}
  ]
}
